Test results as given in PubChem BioAssay (NCI).
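Cultured in 96-well plates, cells were exposed to test compound for 48 hours across five concentrations. Definition used: TGI = concentration required for complete inhibition of growth.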

Columns and labels:
Assay in all cases: inhibition of tumour cell growth, NCI panel, 48 h
[1] = system: UO-31 renal
[2] = system: HOP-62 NSCLC
[3] = system: HCC-2998 colon
[4] = system: OVCAR-8 ovarian
[5] = system: MALME-3M melanoma
[6] = system: TK-10 renal
[7] = system: A549 NSCLC
[8] = system: SN12C renal
[9] = system: SK-MEL-5 melanoma
[10] = system: M14 melanoma
[11] = system: EKVX NSCLC
[12] = system: OVCAR-4 ovarian
[13] = system: COLO 205 colon
[14] = system: DMS 273 small cell lung
[15] = system: LOX IMVI melanoma
[16] = system: HCT-15 colon
[17] = system: OVCAR-5 ovarian
[18] = system: HOP-18 NSCLC
[19] = system: DMS 114 small cell lung
[20] = system: NCI-H23 lung
[21] = system: MOLT-4 leukemia
[22] = system: SF-268 CNS
[23] = system: UACC-257 melanoma
[24] = system: HT29 colon
[25] = system: RXF-631 renal
[26] = system: KM12 colon
[27] = system: CAKI-1 renal
[28] = system: LXFL 529 NSCLC
[29] = system: KM20L2 colon
[30] = system: CCRF-CEM leukemia
[31] = system: SK-MEL-2 melanoma
[32] = system: SK-OV-3 ovarian
[33] = system: HL-60(TB) leukemia
[34] = system: ACHN renal
[35] = system: HOP-92 NSCLC
[36] = system: OVCAR-3 ovarian
[37] = system: IGROV1 ovarian
[38] = system: SW-620 colon
[39] = system: SNB-75 CNS
[40] = system: SF-295 CNS
[41] = system: K-562 leukemia
[42] = system: NCI-H460 lung
[43] = system: M19-MEL melanoma
[44] = system: RPMI-8226 leukemia
[45] = system: SF-539 CNS
[46] = system: DLD-1 colon
[47] = system: U251 CNS
[48] = system: RXF 393 renal
[49] = system: UACC-62 melanoma
[50] = system: 786-0 renal
[51] = system: SK-MEL-28 melanoma
[52] = system: NCI-H522 lung

Measured: TGI

N#CC(C#N)=C1NN=C(Cl)c2ccccc21
> 100 µM: all assays above
